Assay results: patent publication US20240051992A1, “THIOPHOSPHOPEPTIDES FOR ULTRAFAST TARGETING OF THE GOLGI APPARATUS” (BRANDEIS UNIVERSITY, priority 2021, published 2024)
Several values for one entry are separate records, joined by “and”; a condition that tells them apart may be missing. Equal entries are not always repeated. Where two headings read alike, the source gives them in different places.

How the values were obtained:
[1] = Critical micelle concentration (CMC) determination by dynamic light scattering; assay type: physicochemical; settings: thiophosphopeptide in deionized water, pH 7.4, DLS
Method: Critical micelle concentration (CMC) determination: A series of solutions of compounds (pS1, pS2), from the concentration of 0.0625 μM to 400 μM, were prepared in deionized water and adjusted the pH to 7.4. The count rates of the solutions were measured and recorded by an ALV/DLS/SLS-5000 Light Scattering System, which were converted to the intensity of scattered light and then plotted against concentrations to determine the CMC values. Then, ALP (0.1 U/mL) was added to the series of solutions and after 24 h, the same procedures were proceeded to determine CMC values of dephosphorylated pS1 and pS2 (S1 and S2).

[2] = tested on: alkaline phosphatase (ALP)
Method: Determination of Dephosphorylation Rates in vitro: To determine the dephosphorylation rates of thiophosphopeptides in vitro, pS1, pO1, pS2, pO2 solutions (PBS, pH 7.4) were prepared at concentration of 120 μM and ALP was added into the solutions to make the final concentration of ALP to 0.1 U/mL at 37° C. At the designated time, the same volume of methanol was added to eliminate the activity of ALP. LC/MS was used analyse the results.

[3] = tested on: HeLa cells; experiment: Cytotoxicity against HeLa cells; assay type: cell-based; settings: 24 h
Method: (§1) Cell Lines: All cell lines used (HeLa, Saos-2, SJSA-1, OVSAHO, HCC1937, HepG2, OVCAR-4, SKOV-3, MCF-7, HEK293, HS-5) were purchased from the American Type Culture Collection (ATCC, Manassas, VA, USA). HeLa, HepG2, MCF-7 and HEK293 cells were cultured in MEM medium with 10% FBS and 1% P/S (100 U mL^−1 penicillin and 100 μg mL^−1 streptomycin, Invitrogen Life Technologies). Saos-2, SKOV-3 cells were cultured in McCoy's 5A medium with 15% FBS and 1% P/S. HS-5 cells were cultured in DMEM medium with 10% FBS and 1% P/S. SJSA-1, OVSAHO, HCC1937, OVCAR-4 cells were cultured in RPMI-1640 medium with 10% FBS and 1% P/S. All the cells were cultured at 37° C. in a humidified atmosphere of 5% CO2. To determine the cytotoxicity of the compounds, cells were seeded in 96-well cell plate at 1.0×10^4 cells/well for 24 h followed by culture medium removal, and then fresh culture medium containing compounds were added. For fluorescence imaging, cells were seeded in confocal dish at 1.5×10^5 cells/dish for 24 h followed by the addition of fresh medium containing compounds, and then the fluorescence of cells were taken by ZEISS LSM 880 confocal laser scanning microscope with the 63× oil lens.

[4] = Cytotoxicity against HEK293 cells; assay type: cell-based; settings: human
Method: as §1

[5] = Cytotoxicity against HS-5 cells; assay type: cell-based; settings: human
Method: as §1

[6] = tested on: Golgi of HeLa cells; experiment: Staining of pS2-treated HeLa cells with tetracysteine probe FlAsH-EDT2; assay type: cell-based; settings: pS2 10 μM, 4 h; FlAsH-EDT2 1 μM, 1 h
Method: Staining cells with FlAsH-EDT 2: Briefly, after incubating HeLa cell lines (1.5×10^5) in 3.5 cm confocal dish for 24 h at 37° C. in a humidified atmosphere of 5% CO2, we discarded the medium and added fresh medium containing pS2 (10 μM) and incubated them together for 4 h. After 4 h, medium was removed followed by three-time wash by cell imaging buffer to eliminate FBS. Then, we added FlAsH-EDT2 solution (cell imaging buffer, 1 μM) into the confocal dish and incubated the HeLa cells at 37° C. for 1 h. Meanwhile, we prepared 1,2-Ethanedithiol (EDT) solution (cell imaging buffer, 250 μM) and after the one-hour incubation of HeLa cells with FlAsH-EDT2, FlAsH-EDT2 was discarded and EDT solution was added to the confocal dish to eliminate the unspecific binding of FlAsH-EDT2 for 10 min. Ten minutes later, EDT solution was removed and cells were washed with cell imaging buffer three times and the fluorescence images were taken by ZEISS LSM 880 confocal laser scanning microscope.

[7] = tested on: Golgi of HeLa cells; experiment: CLSM fluorescence imaging of Golgi accumulation in HeLa cells; settings: for Golgi fluorescence: 4 minutes
[8] = Transmission electron microscopy of pS1 with or without ALP; assay type: physicochemical; settings: 5 μM, without ALP
Method: Transmission Electron Microscopy Experiments: The 400 mesh copper grids coated with carbon film was glowing discharged and sample solutions (5 μL of each) was placed onto the grids. After 30 seconds, the sample solution was removed, and the grids were stained by uranyl acetate (2% v/v) and allowed to dry in air. TEM images were obtained with Morgagni 268 transmission electron microscope at the HV of 80 kV with filament of 2.

[9] = tested on: Saos-2 cells; experiment: CLSM rate of fluorescence increase at Golgi, Saos-2; assay type: cell-based; settings: pS1 10 μM
Method: as §1, with “lens. […]” for “lens.”

[10] = tested on: SJSA-1 cells; experiment: CLSM rate of fluorescence increase at Golgi, SJSA-1; assay type: cell-based; settings: pS1 10 μM
Method: as §1, with “lens. […]” for “lens.”

[11] = tested on: OVSAHO cells; experiment: CLSM rate of fluorescence increase at Golgi, OVSAHO; assay type: cell-based; settings: pS1 10 μM
Method: as §1, with “lens. […]” for “lens.”

[12] = tested on: HCC1937 cells; experiment: CLSM rate of fluorescence increase at Golgi, HCC1937; assay type: cell-based; settings: pS1 10 μM
Method: as §1, with “lens. […]” for “lens.”

[13] = tested on: HepG2 cells; experiment: CLSM rate of fluorescence increase at Golgi, HepG2; assay type: cell-based; settings: pS1 10 μM
Method: as §1, with “lens. […]” for “lens.”

[14] = tested on: OVCAR4 cells; experiment: CLSM rate of fluorescence increase at Golgi, OVCAR-4; assay type: cell-based; settings: pS1 10 μM
Method: as §1, with “lens. […]” for “lens.”

[15] = tested on: SKOV3 cells; experiment: CLSM rate of fluorescence increase at Golgi, SKOV-3; assay type: cell-based; settings: pS1 10 μM
Method: as §1, with “lens. […]” for “lens.”

[16] = tested on: MCF7 cells; experiment: CLSM rate of fluorescence increase at Golgi, MCF-7; assay type: cell-based; settings: pS1 10 μM
Method: as §1, with “lens. […]” for “lens.”

[17] = tested on: HEK293 cells; experiment: CLSM rate of fluorescence increase at Golgi, HEK293; assay type: cell-based; settings: pS1 10 μM
Method: as §1, with “lens. […]” for “lens.”

[18] = tested on: HS-5 cells; experiment: CLSM rate of fluorescence increase at Golgi, HS-5; assay type: cell-based; settings: pS1 10 μM
Method: as §1, with “lens. […]” for “lens.”

Compound: O=C(Cc1ccc2ccccc2c1)N[C@H](Cc1ccccc1)C(=O)N[C@H](Cc1ccccc1)C(=O)NCCSP(=O)(O)O [pS2]
- critical micelle concentration (CMC) [1]: 9.5 µM
- dephosphorylation by ALP (rate, in words) ([2]; 120 μM, ALP 0.1 U/mL, PBS pH 7.4, 37° C.): rapid dephosphorylation
- conversion to dephosphorylated product ([2]; ALP 0.1 U/mL, about 16 minutes): nearly fully converted
- selectivity against cancer cells (HeLa vs HEK293 and HS-5) ([3]; compared with S2): more selective than S2
- IC50 ([3]; HeLa cells): 2.8 µM and ~3 µM
- inhibitory activity against HeLa cells relative to pO2 ([3]; HeLa cells): an order of magnitude higher than that of pO2
- rescue of HeLa cells by cell death inhibitors (Z-VAD-FMK, NAc, Nec-1, DFO, Fer-1, disulfiram) ([3]; pS2 10 μM): unable to rescue
- IC50 at 24 h [4]: > 100 µM
- IC50 at 24 h [5]: > 100 µM
- FlAsH-EDT2 staining of treated cells [6]: fluorescent at the Golgi of the HeLa cells

Compound: NBD-(β-Ala-f-f-NH—(CH2)2-phosphate [pO1, reference compound]
- dephosphorylation by ALP (rate, in words) ([2]; pH 7.4): taking longer time for dephosphorylation than that of pS1
- fluorescence in cells ([7]; 10 μM, 8 minutes): almost no fluorescence
- fluorescence in cells ([7]; 100, 50, 20 μM, 4 hours): several scattered fluorescent puncta in cells
- cellular uptake and localisation ([7]; HeLa cells): requires hours for cellular uptake and largely remains in endosomes

Compound: NBD-(β-Ala-f-f-NH—(CH2)2-thiophosphate [pS1]
- critical micelle concentration (CMC) [1]: 6.0 µM
- assemblies seen by TEM [8]: micelles
- dephosphorylation by ALP (rate, in words) ([2]; pH 7.4): fast dephosphorylation
- fluorescence intensity increase at the Golgi [9]: increase significantly
- fluorescence intensity increase at the Golgi [10]: increase significantly
- fluorescence intensity increase at the Golgi [11]: increase significantly
- fluorescence intensity increase at the Golgi [12]: increase significantly
- fluorescence intensity increase at the Golgi [13]: slightly
- fluorescence intensity increase at the Golgi [14]: slightly
- fluorescence intensity increase at the Golgi [15]: much slowly
- fluorescence intensity increase at the Golgi [16]: much slowly
- fluorescence intensity increase at the Golgi [17]: much slowly
- fluorescence intensity increase at the Golgi [18]: much slowly
- time until distinctive fluorescence appears at the Golgi ([7]; 500 nM): 15 min
- Golgi fluorescence ([7]; 2 μM): much weaker fluorescence at the Golgi
- Golgi fluorescence ([7]; 5 μM): green fluorescence clearly still presents at the Golgi, but little at the ER
- enhancement of fluorescence intensity at the Golgi from 1 minute to 8 minutes ([7]; 10 μM): about 7 times
- onset of fluorescence after addition ([7]; 10 μM, 0 min): appears almost instantly
- Golgi fluorescence ([7]; 10 μM): bright green fluorescence presents in Golgi and weak fluorescence in ER
- colocalisation of fluorescence with CellLight Golgi-RFP ([7]; 10 μM, 8 minutes): overlaps with the red fluorescence from all Golgi-RFP
- cell morphology in DIC image ([7]; 10 μM, 20 min): well-spread HeLa cells
- concentration as low as which S1 accumulates at Golgi ([7]; HeLa cells treated with pS1): 500 nM
- fluorescence at Golgi of pretreated cells in fresh culture medium (exocytosis) ([7]; HeLa pretreated with pS1, fresh medium): drops only slightly over time
- rate of Golgi accumulation when protein disulfide isomerases (PDIs) are inhibited ([7]; PDI inhibition): slight decrease of the rate of Golgi accumulation
- accumulation at Golgi after cytochalasin D (CytD) ([7]; pS1 10 μM, CytD 0.5, 1.0 μg/mL, 30 min pretreatment): decreases the accumulation of S1 at Golgi in a concentration-dependent manner
- rate of fluorescence increase at Golgi after ALP inhibitor DQB ([7]; pS1 10 μM, DQB 20 μM, 30 min pretreatment): reduce the rate of fluorescence increase at the Golgi
- accumulation at Golgi with N-ethylmaleimide (NEM) ([7]; pS1 10 μM, NEM 5 mM, 16 min): almost completely eliminates the accumulation of S1 at Golgi
- rate of fluorescence increase at Golgi after phosphatase inhibitor cocktail set 3 (PIC) ([7]; pS1 10 μM, PIC 4000×, 30 min pretreatment): reduce the rate of fluorescence increase at the Golgi
- rate of fluorescence increase at Golgi after phospholipase C (PLC) ([7]; pS1 10 μM, PLC 0.2 U, 30 min pretreatment): slightly faster increase of fluorescence in the Golgi
- rate of fluorescence increase at Golgi after methyl-β-cyclodextrin (mβCD) ([7]; pS1 10 μM, mβCD 5 mM, 30 min pretreatment): significantly decreases the rate of the fluorescence increase at the Golgi
- accumulation at Golgi with Golgi disruptor brefeldin A (BFA) ([7]; with BFA): abolishes the accumulation
